Target: PARP7 (Homo sapiens (Human), UniProt Q7Z3E1)
Experiment: Enzymatic assay for inhibition of PARP7: TR-FRET displacement of biotinylated Probe A from the TIPARP active site
Assay type: binding
Conditions: Table A-1
Procedure, shortened: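 Displacement of biotinylated Probe A from TIPARP was measured as the 665/615 nm time-resolved FRET ratio (excitation 320 nm, 90 μs delay) after a further 30 min at 25 °C. Inhibition across compound concentrations was fitted by dose-response regression, with the Hill slope free or fixed at 1 (3-parameter fit).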

Sequence of PARP7 (Q7Z3E1 whole entry): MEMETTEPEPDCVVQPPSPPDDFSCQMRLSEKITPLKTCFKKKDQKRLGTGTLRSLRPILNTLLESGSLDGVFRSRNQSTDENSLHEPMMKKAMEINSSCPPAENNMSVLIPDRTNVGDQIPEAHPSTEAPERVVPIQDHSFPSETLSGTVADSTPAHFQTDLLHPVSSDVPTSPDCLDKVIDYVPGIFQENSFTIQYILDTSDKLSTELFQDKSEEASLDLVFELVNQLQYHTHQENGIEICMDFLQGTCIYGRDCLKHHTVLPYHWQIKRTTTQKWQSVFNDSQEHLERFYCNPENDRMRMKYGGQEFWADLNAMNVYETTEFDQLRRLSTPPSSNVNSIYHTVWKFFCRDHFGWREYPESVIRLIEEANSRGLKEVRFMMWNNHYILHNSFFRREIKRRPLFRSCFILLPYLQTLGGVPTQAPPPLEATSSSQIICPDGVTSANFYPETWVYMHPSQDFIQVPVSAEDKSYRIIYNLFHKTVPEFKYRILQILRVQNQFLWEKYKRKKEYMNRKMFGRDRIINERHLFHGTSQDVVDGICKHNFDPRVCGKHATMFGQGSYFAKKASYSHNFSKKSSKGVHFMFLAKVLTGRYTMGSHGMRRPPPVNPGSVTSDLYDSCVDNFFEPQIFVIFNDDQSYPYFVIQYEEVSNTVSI

IC50 [nM]	SMILES
< 100	N#Cc1ccc(N2CCN(C(=O)CCOC[C@@H]3c4ncccc4CN3c3cn[nH]c(=O)c3C(F)(F)F)CC2)nc1 [Example 137A, 6-[4-(3-[[(7S)-6-[6-oxo-5-(trifluoromethyl)-1,6-dihydropyridazin-4-yl]-5H,6H,7H-pyrrolo[3,4-b]pyridin-7-yl]methoxy]propanoyl)piperazin-1-yl]pyridine-3-carbonitrile]
≥ 1000	CC(C)c1c(N2Cc3cccc(OC4CCNCC4)c3C2)cn[nH]c1=O [Example 248, 4-Isopropyl-5-(4-(piperidin-4-yloxy)isoindolin-2-yl)pyridazin-3(2H)-one]
< 100	CN(CCOc1cccc2c1CN(c1cn[nH]c(=O)c1C(F)(F)F)C2)CCC(=O)N1CCN(c2ccc(C#N)cn2)CC1 [Example 493, 6-(4-(3-(Methyl(2-((2-(6-oxo-5-(trifluoromethyl)-1,6-dihydropyridazin-4-yl)isoindolin-4-yl)oxy)ethyl)amino)propanoyl)piperazin-1-yl)nicotinonitrile]
< 100	O=C(CCOC[C@@H]1CCCN1c1cn[nH]c(=O)c1C(F)(F)F)N1CCN(c2ccc(C(F)(F)F)cn2)CC1 [Example 458, (S)-5-(2-((3-Oxo-3-(4-(5-(trifluoromethyl)pyridin-2-yl)piperazin-1-yl)propoxy)methyl)pyrrolidin-1-yl)-4-(trifluoromethyl)pyridazin-3(2H)-one]
< 100	COCC[C@@H](COCCC(=O)N1CCN(c2ncc(C(F)(F)F)cn2)CC1)Nc1cn[nH]c(=O)c1C(F)(F)F [Example 686, (S)-5-((4-Methoxy-1-(3-oxo-3-(4-(5-(trifluoromethyl)pyrimidin-2-yl)piperazin-1-yl)propoxy)butan-2-yl)amino)-4-(trifluoromethyl)pyridazin-3(2H)-one]
< 100	N#Cc1c(OCCOCCC(=O)N2CCN(c3ncc(C(F)(F)F)cn3)CC2)cn[nH]c1=O [Example 553, 3-Oxo-5-[2-(3-oxo-3-[4-[5-(trifluoromethyl)pyrimidin-2-yl]piperazin-1-yl]propoxy)ethoxy]-2,3-dihydropyridazine-4-carbonitrile]
≥ 1000	N#Cc1ccc(N2CCN(C(=O)CCNCCOc3cn[nH]c(=O)c3C(F)(F)F)CC2)nc1 [Example 502]
100 to 1000	CN(CC[C@@H]1CCCN1c1cn[nH]c(=O)c1C(F)(F)F)CC(=O)N1CCN(c2ccc(C#N)cn2)CC1 [Example 91]
100 to 1000	O=c1[nH]ncc(N2Cc3c(F)ccc(OC4CCNCC4)c3C2)c1C(F)(F)F [Example 291, 5-(4-Fluoro-7-(piperidin-4-yloxy)isoindolin-2-yl)-4-(trifluoromethyl)pyridazin-3(2H)-one]
< 100	O=c1[nH]ncc(N2Cc3cccc(N4CCCC4)c3C2)c1C(F)(F)F [Example 284, 5-(4-(Pyrrolidin-1-yl)isoindolin-2-yl)-4-(trifluoromethyl)pyridazin-3(2H)-one]
< 100	N#Cc1ccc(NCCC(=O)Nc2cncc(OC[C@@H]3CCCN3c3cn[nH]c(=O)c3C(F)(F)F)c2)nc1 [Example 87, 3-[(5-cyanopyridin-2-yl)amino]-N-(5-[[(2S)-1-[6-oxo-5-(trifluoromethyl)-1,6-dihydropyridazin-4-yl]pyrrolidin-2-yl]methoxy]pyridin-3-yl)propanamide]
< 100	C[C@H](CSCCC(=O)N1CCN(c2ncc(C(F)(F)F)cn2)CC1)Oc1cn[nH]c(=O)c1C(F)(F)F [Example 621B, (R)-5-((1-((3-Oxo-3-(4-(5-(trifluoromethyl)pyrimidin-2-yl)piperazin-1-yl)propyl)thio)propan-2-yl)oxy)-4-(trifluoromethyl)pyridazin-3(2H)-one]
< 100	C[C@@H](COCCC(=O)N1CCN(c2ccc(Cl)cn2)CC1)Nc1cn[nH]c(=O)c1C(F)(F)F [Example 563, 5-[[(2S)-1-[3-[4-(5-Chloropyridin-2-yl)piperazin-1-yl]-3-oxopropoxy]propan-2-yl]amino]-4-(trifluoromethyl)-2,3-dihydropyridazin-3-one]
< 100	Cc1c(OCCOCCC(=O)N2CCN(c3ncc(C(F)(F)F)cn3)CC2)cn[nH]c1=O [Example 550, 4-Methyl-5-[2-(3-oxo-3-[4-[5-(trifluoromethyl)pyrimidin-2-yl]piperazin-1-yl]propoxy)ethoxy]-2,3-dihydropyridazin-3-one]
≥ 1000	O=C(C[C@@H]1CC[C@H](COc2cn[nH]c(=O)c2Cl)O1)N1CCN(c2ncc(C(F)(F)F)cn2)CC1 [Example 575 Isomer D, 4-Chloro-5-(((2R,5S)-5-(2-oxo-2-(4-(5-(trifluoromethyl)pyrimidin-2-yl)piperazin-1-yl)ethyl)-tetrahydrofuran-2-yl)methoxy)pyridazin-3(2H)-one]
≥ 1000	CC(C)c1c(N2Cc3ccc(OC4CCCNC4)cc3C2)cn[nH]c1=O (centres unmarked) [Example 287, 4-Isopropyl-5-(5-(piperidin-3-yloxy)isoindolin-2-yl)pyridazin-3(2H)-one]

IC50 [nM]	SMILES
< 100	N#Cc1ccc(N2CCN(C(=O)c3ccc(OCC4CCN(c5cn[nH]c(=O)c5C(F)(F)F)C4)cc3)CC2)nc1 (centres unmarked) [Example 477, 6-(4-(4-((1-(6-Oxo-5-(trifluoromethyl)-1,6-dihydropyridazin-4-yl)pyrrolidin-3-yl)methoxy)benzoyl)piperazin-1-yl)nicotinonitrile]
< 100	CN(CCC(=O)N1CCN(c2ccc(C#N)cn2)CC1)C[C@@H]1CCCN1c1cn[nH]c(=O)c1C(F)(F)F [Example 136, (S)-6-(4-(3-(methyl((1-(6-oxo-5-(trifluoromethyl)-1,6-dihydropyridazin-4-yl)pyrrolidin-2-yl)methyl)amino)propanoyl)piperazin-1-yl)nicotinonitrile]
< 100	COC[C@@H](COCCC(=O)N1CCN(c2cnc(Cl)cn2)CC1)Nc1cn[nH]c(=O)c1Br [Example 693, (S)-4-Bromo-5-((1-(3-(4-(5-chloropyrazin-2-yl)piperazin-1-yl)-3-oxopropoxy)-3-methoxypropan-2-yl)amino)pyridazin-3(2H)-one]
< 100	N#Cc1ccc(N2CCN(C(=O)CCCOC[C@@H]3c4ccccc4CN3c3cn[nH]c(=O)c3C(F)(F)F)CC2)nc1 [Example 410, (S)-6-(4-(4-((2-(6-Oxo-5-(trifluoromethyl)-1,6-dihydropyridazin-4-yl)isoindolin-1-yl)methoxy)butanoyl)piperazin-1-yl)nicotinonitrile]
< 100	C[C@H](COC[C@@H]1CCCN1c1cn[nH]c(=O)c1C(F)(F)F)C(=O)N1CCN(c2ccc(C#N)cn2)CC1 (single isomer, unassigned) [Example 94 Isomer A]
< 100	N#Cc1cnc(N2CCN(C(=O)c3cccc(OC[C@@H]4CCCN4c4cn[nH]c(=O)c4C(F)(F)F)c3)CC2)cn1 [Example 443, (S)-5-(4-(3-((1-(6-Oxo-5-(trifluoromethyl)-1,6-dihydropyridazin-4-yl)pyrrolidin-2-yl)methoxy)benzoyl)piperazin-1-yl)pyrazine-2-carbonitrile]
< 100	N#Cc1ccc(N2CCN(C(=O)C[C@@H]3CC[C@@H](CNc4cn[nH]c(=O)c4C(F)(F)F)O3)CC2)nc1 (single isomer, unassigned) [Example 581 Isomer B]
100 to 1000	NC(=O)COc1cccc2c1CN(c1cn[nH]c(=O)c1C(F)(F)F)C2 [Example 204, 2-((2-(6-Oxo-5-(trifluoromethyl)-1,6-dihydropyridazin-4-yl)isoindolin-4-yl)oxy)acetamide]
100 to 1000	O=C(c1cncc(OC[C@H]2c3ccccc3CN2c2cn[nH]c(=O)c2C(F)(F)F)c1)N1CCN(c2ccc(Cl)cn2)CC1 [Example 389, (R)-5-(1-(((5-(4-(5-Chloropyridin-2-yl)piperazine-1-carbonyl)pyridin-3-yl)oxy)methyl)isoindolin-2-yl)-4-(trifluoromethyl)pyridazin-3(2H)-one]
< 100	C[C@@H](COCCS(=O)(=O)N1CCN(c2ncc(C(F)(F)F)s2)CC1)Nc1cn[nH]c(=O)c1Cl [Example 731, (S)-4-Chloro-5-((1-(2-((4-(5-(trifluoromethyl)thiazol-2-yl)piperazin-1-yl)sulfonyl)ethoxy)propan-2-yl)amino)pyridazin-3(2H)-one]
< 100	CN(C)c1cccc2c1CN(c1cn[nH]c(=O)c1C(F)(F)F)C2 [Example 178, 5-(4-(Dimethylamino)isoindolin-2-yl)-4-(trifluoromethyl)pyridazin-3(2H)-one]
< 100	Cc1ccc(N2CCN(C(=O)CCOC[C@H](C)Nc3cn[nH]c(=O)c3C(F)(F)F)CC2)nc1 [Example 671, (S)-5-((1-(3-(4-(5-Methylpyridin-2-yl)piperazin-1-yl)-3-oxopropoxy)propan-2-yl)amino)-4-(trifluoromethyl)pyridazin-3(2H)-one]
100 to 1000	CN(CCC(=O)N1CCN(c2ccc(C#N)cn2)CC1)C[C@H]1c2ccccc2CN1c1cn[nH]c(=O)c1C(F)(F)F [Example 428, (R)-6-(4-(3-(Methyl((2-(6-oxo-5-(trifluoromethyl)-1,6-dihydropyridazin-4-yl)isoindolin-1-yl)methyl)amino)propanoyl)piperazin-1-yl)nicotinonitrile]
< 100	O=c1[nH]ncc(N2Cc3cccc(CNCc4ccncc4)c3C2)c1C(F)(F)F [Example 329, 5-(4-(((Pyridin-4-ylmethyl)amino)methyl)isoindolin-2-yl)-4-(trifluoromethyl)pyridazin-3(2H)-one]
< 100	O=c1[nH]ncc(N2Cc3ccc(O[C@@H]4CCCNC4)cc3C2)c1C(F)(F)F [Example 288, (R)-5-(5-(Piperidin-3-yloxy)isoindolin-2-yl)-4-(trifluoromethyl)pyridazin-3(2H)-one]

SMILES	IC50 [nM]
N#Cc1ccc(N2C3CCC2CN(C(=O)CCOC[C@@H]2CCCN2c2cn[nH]c(=O)c2C(F)(F)F)C3)nc1 [Example 102, 6-[3-(3-[[(2S)-1-[6-oxo-5-(trifluoromethyl)-1,6-dihydropyridazin-4-yl]pyrrolidin-2-yl]methoxy]propanoyl)-3,8-diazabicyclo[3.2.1]octan-8-yl]pyridine-3-carbonitrile]	< 100

— patent US10550105B2 (Ribon Therapeutics Inc., priority 2018, dated 2020)
